Laboratory results: patent US6344576B1, “Phospholipid-analogous compounds” (Max-Planck-Gesellschaft zur Förderung der Wissenschaften …, priority 1997, dated 2002)

Key:
[1] = Behaviour in water (solubility, gel formation, suitability for intravenous administration); format: physicochemical
[2] = Use as solubilizer for substances of low solubility in water

gel formation in water [1]	Molecule	suitability as solubilizer for substances of low solubility in water [2]
forms gel-like structures in water	CCCCCCCC/C=C\CCCCCCCCCCCCOP(=O)([O-])OCC[N+](C)(C)C [Erucylphosphocholine]	
	CCCCCCCC/C=C\CCCCCCCCCCCC(=O)OC[C@@H](O)COP(=O)([O-])OCCC[N+](C)(C)C [Example 139, 1-Erucoyl-sn-glycero-3-phospho-N,N,N-trimethyl-propylammonium]	proved useful
	1,2-Dioleoyl-sn-glycero-3-phospho-N,N-dimethyl-N-dihydroxypropyl-ethylammonium [Example 14]	proved useful
	CCCCCCCC/C=C\CCCCCCCC(=O)OC[C@H](COP(=O)([O-])OCCC[N+](C)(C)C)OC(=O)CCCCCCC/C=C\CCCCCCCC [Example 85, 1,2-Dioleoyl-sn-glycero-3-phospho-N,N,N-trimethyl-propylammonium]	proved useful
